# Assay results: patent US20130096160A1, “ARYLTHIAZOLYL PIPERIDINES AND RELATED COMPOUNDS AS MODULATORS OF SURVIVAL MOTOR NEURON (SMN) PROTEIN PRODUCTION” (Secretary, Department of Health and Human Services, priority 2010, published 2013)
# Tested on: SMN2-luciferase reporter
# Assay: SMN2-luciferase reporter qHTS assay
# Format: cell-based, human
# Design: key to Curve Class: A curve class of 1.1 is a full agonist/antagonist; a curve class of 4 indicates the compound is inactive
# Settings: for Curve Class: agonist/antagonist character of the concentration-response, lower values = more significant concentration-response; for Increased SMN2 activity: percent increase (or decrease) in SMN2 levels compared to control in which no test compound is added
# Description: A cell-based quantitative high throughput screening (qHTS) assay is used to identify compounds able to increase SMN production. The assay uses a SMN2-luciferase reporter to determine if exon 7 of the SMN gene is expressed, which correlates with increased full-length SMN production from the SMN2 gene. As controls, a homologue SMN1-luciferase reporter cell line looks for variations in expression of the SMN1 gene and a cell line with just the luciferase reporter looks at the capacity of the compounds to inhibit luciferase. In addition, increments in SMN production by lead compounds were confirmed by Western-Blot analysis using SMA patient fibroblasts.
# For the qHTS assay, concentration-response profiles are generated at the primary-screen level for each library compound to minimize the number of false positives. A dilution series consisting of seven points separated by five-fold concentration differences is prepared for each compound, yielding a concentration series that spans a range of about four orders of magnitude, for example from a high concentration of 50 micromolar to a low concentration of 3.2 nanomolar and providing adequate data for fitting to a Hill equation. For the assay, the SMN2 reporter cell line was plated at a density of ˜2000 cells/well in complete media (phenol red free DMEM, 10% detacl calf serum, and 1× pen/strep), in 1536 well white solid bottom tissue culture treated plates (Greiner). Cells were allowed to adhere and recover at 37 C in 5% CO2 for 10-12 hours. Compounds were added to the plates by a Pintool (Kalypsys) at a volume of 23 nl/well. Cells were incubated in the presence of compounds for 2 days at 37 C in 5% CO2. In order to quantify luciferase reporter levels, 3 ul/well of OneGlo (Promega) was added to each well and incubated at room temperature for 10 minutes. Luminescence from the reporter in each well is measured using a Viewlux CCD based imager (Perkin Elmer) with an integration time of 30 seconds and a binning of 2× in luminescence mode. Sodium butyrate was used as the positive control compound for luciferase induction and a column of 32 wells of 9.2 mM compound on each plate was used to monitor assay performance.
# The SMN reporters used herein are modified from those previously described (M. L. Zhang, C. L. Lorson, E. J. Androphy and J. Zhou, An in vivo reporter system for measuring increased inclusion of exon 7 in SMN2 mRNA: potential therapy of SMA, Gene Ther 8 (2001), pp. 1532-1538.)
# The sequence of the SMN1 reporter vector used herein is given in SEQ ID NO.:1, while that of the SMN2 reporter vector is given in SEQ ID NO.:2.
# Each of the SMN reporters is constructed from three separate DNA fragments: (1) an SMN promotor sequence from the transcriptional reporter p 4.0T (SMN1) or p3.4C (SMN2) described in Monani, et al. Biochimica et Biophysica Acta 1445 (1999) 330-336; (2) a modification of the firefly luciferase splicing reporter for SMN1 or SMN2 described by Zhang et al; and (3) a 744 bp SMN cDNA fragment.
# The 3.7 kB SMN1 promoter fragment is obtained by restriction of p4.0T with BglII and SacII. A 3.4 kB SMN2 promoter fragment is obtained by restriction of p3.4C with KpnI and SacII; a 300 bp BglII/KpnI fragment from p4.0T is then added to the 3.4 kB SMN2 promoter fragment to yield the final 3.7 kB SMN2 promoter fragment.
# The modified SMN1 and SMN2 firefly luciferase splicing reporters are obtained by removing 4 kB of intron 6 in the original reporter system by restriction with SmaI/Swa followed by religation of the reporter. A 4 kB luciferase splicing reporter is then obtaind by digestion with XhoI and NotI.
# Ths SMN cDNA fragment is obtained by generating the productof a polymerase chain reaction (PCR) on a cDNA preparation using […] (SEQ ID NO:3) as the forward primer and Tatctcgagtggtccagaaggaaatggaggcagcc (SEQ ID NO:4) as the reverse primer. The PCR product is then digested with XhoI and SacII. […]
SMILES,Curve Class,Increased SMN2 activity [%]
"CN(C)C(=O)c1cccc(-c2csc(N3CCC(C(N)=O)CC3)n2)c1 [Example 62, 1-(4-(3-(Dimethylcarbamoyl)Phenyl)Thiazol-2-yl)Piperidine-4-Carboxamide]",2.2,51.18
"COc1cc(OC)cc(-c2csc(N3CCC(C(N)=O)CC3)n2)c1 [Example 85, 1-(4-(3,5-Dimethoxyphenyl)Thiazol-2-yl)Piperidine-4-Carboxamide]",1.4,44.77
"NC(=O)C1CCN(c2nc(-c3ccccc3F)cs2)CC1 [Example 38, 1-(4-(2-Fluorophenyl)Thiazol-2-yl)Piperidine-4-Carboxamide]",1.1,274.6
"NC(=O)C1CCN(c2nc(-c3ccc([N+](=O)[O-])cc3)cs2)CC1 [Example 29, 1-(4-(4-Nitrophenyl)Thiazol-2-yl)Piperidine-4-Carboxamide]",2.1,254.3
"CC(=O)c1cccc(-c2csc(N3CCC(C(N)=O)CC3)n2)c1 [Example 55, 1-(4-(3-Acetylphenyl)Thiazol-2-yl)Piperidine-4-Carboxamide]",1.1,356
"NC1CCN(c2nc(-c3ccc(Br)cc3)cs2)CC1 [Example 111, 1-(4-(4-Bromophenyl)Thiazol-2-yl)Piperidin-4-Amine]",1.1,182.6
"CC(C)Oc1cccc(-c2ccnc(N3CCC(C(N)=O)CC3)n2)c1 [Example 127, 1-(4-(3-Isopropoxyphenyl)Pyrimidin-2-yl)Piperidine-4-Carboxamide]",1.1,298.225
"NC(=O)C1CCN(c2nc(-c3ccc4c(c3)OCC4)cs2)CC1 [Example 93, 1-(4-(2,3-Dihydrobenzofuran-6-yl)Thiazol-2-yl)Piperidine-4-Carboxamide]",2.1,401.7
"NC(=O)C1CCN(c2ncc(-c3ccc(Br)cc3)s2)CC1 [Example 87, 1-(5-(4-Bromophenyl)Thiazol-2-yl)Piperidine-4-Carboxamide]",1.1,598.7
"NC(=O)C1CCN(c2nc(-c3cccs3)cs2)CC1 [Example 51, 1-(4-(Thiophen-2-yl)Thiazol-2-yl)Piperidine-4-Carboxamide]",2.2,50.93
"COc1ccc(-c2csc(N3CCC(C(N)=O)CC3)n2)cc1 [Example 25, 1-(4-(4-Methoxyphenyl)Thiazol-2-yl)Piperidine-4-Carboxamide]",2.1,209.1
"NC(=O)C1CCN(c2nc(-c3ccc(Oc4ccccc4)cc3)cs2)CC1 [Example 92, 1-(4-(4-Phenoxyphenyl)Thiazol-2-yl)Piperidine-4-Carboxamide]",1.1,240
"NC(=O)C1CCN(c2nc(-c3ccc(OC(F)(F)F)cc3)cs2)CC1 [Example 95, 1-(4-(4-(Trifluoromethoxy)Phenyl)Thiazol-2-yl)Piperidine-4-Carboxamide]",1.1,296.8
"CN(C)c1cccc(-c2ccnc(N3CCC(C(N)=O)CC3)n2)c1 [Example 90, 1-(4-(3-(Dimethylamino)Phenyl)Pyrimidin-2-yl)Piperidine-4-Carboxamide]",1.1,446.3
"NC(=O)C1CCN(c2nccc(-c3ccc4c(c3)OCCO4)n2)CC1 [Example 129, 1-(4-(2,3-Dihydrobenzo[B][1,4]Dioxin-6-yl)Pyrimidin-2-yl)Piperidine-4-Carboxamide]",1.1,364.3
"NC(=O)C1CCN(c2nc(-c3cccc(Br)c3)cs2)CC1 [Example 26, 1-(4-(3-Bromophenyl)Thiazol-2-yl)Piperidine-4-Carboxamide]",2.2,57.55
"NC(=O)C1CCN(c2nccc(-c3ccc4c(c3)OCCCO4)n2)CC1 [Example 128, 1-(4-(3,4-Dihydro-2H-Benzo[B][1,4]Dioxepin-7-yl)Pyrimidin-2-yl)Piperidine-4-Carboxamide]",1.1,234.2
"NC(=O)C1CCN(c2ncc(-c3ccc(Cl)cc3)s2)CC1 [Example 122, 1-(5-(4-Chlorophenyl)Thiazol-2-yl)Piperidine-4-Carboxamide]",1.1,498.3
"NC(=O)C1CCN(c2nc(-c3cccc(Cl)c3)cs2)CC1 [Example 34, 1-(4-(3-Chlorophenyl)Thiazol-2-yl)Piperidine-4-Carboxamide]",2.2,53.23
"CN(C)c1cccc(-c2nccc(N3CCC(C(N)=O)CC3)n2)c1 [Example 104, 1-(2-(3-(Dimethylamino)Phenyl)Pyrimidin-4-yl)Piperidine-4-Carboxamide]",2.1,306.3
"COc1cccc(-c2csc(N3CCC(C(N)=O)CC3)n2)c1 [Example 35, 1-(4-(3-Methoxyphenyl)Thiazol-2-yl)Piperidine-4-Carboxamide]",1.1,357
"CN(C)c1cccc(-c2cnc(N3CCC(C(N)=O)CC3)nc2)c1 [Example 89, 1-(5-(3-(Dimethylamino)Phenyl)Pyrimidin-2-yl)Piperidine-4-Carboxamide]",1.1,236.25
"NC(=O)C1CCN(c2nnc(-c3ccc4c(c3)OCCCO4)s2)CC1 [Example 130, 1-(5-(3,4-Dihydro-2H-Benzo[B][1,4]Dioxepin-7-yl)-1,3,4-Thiadiazol-2-yl)Piperidine-4-Carboxamide]",1.1,257.1
"Cn1ccc2cc(-c3csc(N4CCC(C(N)=O)CC4)n3)ccc21 [Example 65, 1-(4-(1-Methyl-1H-Indol-5-yl)Thiazol-2-yl)Piperidine-4-Carboxamide]",1.1,534
"NC(=O)C1CCN(c2nc(-c3ccccc3Cl)cs2)CC1 [Example 39, 1-(4-(2-Chlorophenyl)Thiazol-2-yl)Piperidine-4-Carboxamide]",2.2,57.61
"CN(C)c1cccc(-c2nc(N3CCC(C(N)=O)CC3)ncc2F)c1 [Example 149, 1-(4-(3-(Dimethylamino)Phenyl)-5-Fluoropyrimidin-2-yl)Piperidine-4-Carboxamide]",1.1,373.2
"O=C(Nc1ccccc1)C1CCN(c2nc(-c3ccc(Br)cc3)cs2)CC1 [Example 72, 1-(4-(4-Bromophenyl)Thiazol-2-yl)-N-Phenylpiperidine-4-Carboxamide]",1.1,262.4
"CN(C)c1cccc(-c2cc(N3CCC(C(N)=O)CC3)ncn2)c1 [Example 143, 1-(6-(3-(Dimethylamino)Phenyl)Pyrimidin-4-yl)Piperidine-4-Carboxamide]",2.1,81.27
"NC(=O)C1CCN(c2nc(-c3cccc(C(F)(F)F)c3)cs2)CC1 [Example 81, 1-(4-(3-(Trifluoromethyl)Phenyl)Thiazol-2-yl)Piperidine-4-Carboxamide]",2.2,100
